Reference: patent US20250073255A1, “USE OF FA-TYPE LIPID COMPOUNDS IN PREPARATION OF NUCLEIC ACID DELIVERY REAGENT AND RELATED PRODUCT” (BEIJING BAISHIKANG PHARMACEUTICAL TECHNOLOGY (BSJPHARMA) …, priority 2021, published 2025)

Tested on: C57BL/6 male mice
Assay: In vivo delivery study of lipid nucleic acid mixture (oral gavage, RT-qPCR of PGY-sRNA-26 in tissues)
Set-up: species or system mouse
Conditions: for overall delivery efficacy: delivering nucleic acids into each tissue and blood tested: 100 μg lipid:10 nmol PGY-sRNA-26, all tissues and blood tested; for oral delivery of single-stranded sRNA nucleic acids into mouse blood / oral delivery of single-stranded sRNA nucleic acids into mouse brain tissue / oral delivery of single-stranded sRNA nucleic acids into mouse femur / oral delivery of single-stranded sRNA nucleic acids into mouse heart tissue / oral delivery of single-stranded sRNA nucleic acids into mouse intestinal tissue / oral delivery of single-stranded sRNA nucleic acids into mouse kidney tissue / oral delivery of single-stranded sRNA nucleic acids into mouse liver tissue / oral delivery of single-stranded sRNA nucleic acids into mouse lung tissue / oral delivery of single-stranded sRNA nucleic acids into mouse spleen tissue / oral delivery of single-stranded sRNA nucleic acids into mouse stomach tissue / oral delivery of single-stranded sRNA nucleic acids into mouse pancreatic tissue: 100 μg lipid:10 nmol PGY-sRNA-26, sampled after 12 hours; for oral delivery of single-stranded sRNA nucleic acids into mouse heart tissue: vs free uptake group; for oral delivery of single-stranded sRNA nucleic acids into mouse intestinal tissue: intestine; for oral delivery of single-stranded sRNA nucleic acids into mouse pancreatic tissue: pancreas
Outline: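 Stem-loop RT and SYBR qPCR, normalized to U6, measured PGY-sRNA-26 in blood and organs 12 h after gavage. Dosing was 10 nmol sRNA with 100 μg lipid, pre-mixed and heated 15 min at 90 °C, in 12-h-fasted mice, against saline and free-sRNA groups.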

SMILES | overall delivery efficacy: delivering nucleic acids into each tissue and blood tested | oral delivery of single-stranded sRNA nucleic acids into mouse blood | oral delivery of single-stranded sRNA nucleic acids into mouse brain tissue | oral delivery of single-stranded sRNA nucleic acids into mouse femur | oral delivery of single-stranded sRNA nucleic acids into mouse heart tissue | oral delivery of single-stranded sRNA nucleic acids into mouse intestinal tissue | oral delivery of single-stranded sRNA nucleic acids into mouse kidney tissue | oral delivery of single-stranded sRNA nucleic acids into mouse liver tissue | oral delivery of single-stranded sRNA nucleic acids into mouse lung tissue | oral delivery of single-stranded sRNA nucleic acids into mouse spleen tissue | oral delivery of single-stranded sRNA nucleic acids into mouse stomach tissue | oral delivery of single-stranded sRNA nucleic acids into mouse pancreatic tissue
CCCCCCCCCCCCCCO [Lipid 635, tetradecan-1-ol] | best delivery efficacy | can effectively orally deliver | can effectively orally deliver | can effectively orally deliver | can effectively orally deliver | can effectively orally deliver | can effectively orally deliver | can effectively orally deliver | can effectively orally deliver | can effectively orally deliver | can effectively orally deliver | 
CCCCCCCCCCCCCCCCCCO [Lipid 636, octadecan-1-ol] | best delivery efficacy | can effectively orally deliver | can effectively orally deliver | can effectively orally deliver | can effectively orally deliver | can effectively orally deliver | can effectively orally deliver | can effectively orally deliver | can effectively orally deliver | can effectively orally deliver | can effectively orally deliver | 
CCCCCCCCCCCC(=O)OC/C=C(\C)CC/C=C(\C)CCC=C(C)C [Lipid 802, [(2E,6E)-3,7,11-trimethyldodeca-2,6,10-trienyl]dodecanoate] | best delivery efficacy | can effectively orally deliver | can effectively orally deliver | can effectively orally deliver | can effectively orally deliver | can effectively orally deliver | can effectively orally deliver | can effectively orally deliver | can effectively orally deliver | can effectively orally deliver | can effectively orally deliver | can effectively orally deliver
CCCCCCCCCC(=O)OC/C=C(\C)CC/C=C(\C)CCC=C(C)C [Lipid 803, [(2E,6E)-3,7,11-trimethyldodeca-2,6,10-trienyl]decanoate] | best delivery efficacy | can effectively orally deliver | can effectively orally deliver | can effectively orally deliver | can effectively orally deliver | can effectively orally deliver | can effectively orally deliver | can effectively orally deliver | can effectively orally deliver | can effectively orally deliver | can effectively orally deliver | can effectively orally deliver
CCCCC/C=C\C/C=C\CCCCCCCCOC(=O)CCCCCCCCCCCCCCC [Lipid 804, [(9Z,12Z)-octadeca-9,12-dienyl] hexadecanoate] |  | can effectively orally deliver | can effectively orally deliver | can effectively orally deliver | can effectively orally deliver | can effectively orally deliver | can effectively orally deliver | can effectively orally deliver | can effectively orally deliver | can effectively orally deliver | can effectively orally deliver | can effectively orally deliver
CC/C=C\C/C=C\C/C=C\CCCCCCCC(=O)OCCCCCCCCCCCC [Lipid 805, dodecyl (9Z,12Z,15Z)-octadeca-9,12,15-trienoate] |  | can effectively orally deliver | can effectively orally deliver | can effectively orally deliver | can effectively orally deliver | can effectively orally deliver | can effectively orally deliver | can effectively orally deliver | can effectively orally deliver | can effectively orally deliver | can effectively orally deliver | can effectively orally deliver
CCCCC/C=C\C/C=C\C/C=C\C/C=C\CCCC(=O)NCCCCCO [Lipid 807, (5Z,8Z,11Z,14Z)-N-(5-hydroxypentyl)icosa-5,8,11,14-tetraenamide] |  | can effectively orally deliver | can effectively orally deliver | can effectively orally deliver | can effectively orally deliver | can effectively orally deliver | can effectively orally deliver | can effectively orally deliver | can effectively orally deliver | can effectively orally deliver | can effectively orally deliver | can effectively orally deliver
CCCCC/C=C\C/C=C\C/C=C\C/C=C\CCCC(=O)NCCCO [Lipid 808, (5Z,8Z,11Z,14Z)-N-(3-hydroxypropyl)icosa-5,8,11,14-tetraenamide] |  | can effectively orally deliver | can effectively orally deliver | can effectively orally deliver | can effectively orally deliver | can effectively orally deliver | can effectively orally deliver | can effectively orally deliver | can effectively orally deliver | can effectively orally deliver | can effectively orally deliver | can effectively orally deliver
